According to PMC8550792, “Evolution of kinase polypharmacology across HSP90 drug discovery” (Cell Chemical Biology, 2021):

What was measured:
Assay in all cases: biochemical
Assay type in all cases: biochemical
382 unique human kinases [1] = molecular target: T1, 382 unique human kinases (Homo sapiens, UniProt Q8TF76); conditions: Haspin, 10 uM; for remaining activity at 10 µM: read-out: % Enzyme Activity (relative to DMSO controls)
T1 construct: purchased Reaction Biology (HotSpot contract assay)
T1 sequence (Q8TF76 1-798): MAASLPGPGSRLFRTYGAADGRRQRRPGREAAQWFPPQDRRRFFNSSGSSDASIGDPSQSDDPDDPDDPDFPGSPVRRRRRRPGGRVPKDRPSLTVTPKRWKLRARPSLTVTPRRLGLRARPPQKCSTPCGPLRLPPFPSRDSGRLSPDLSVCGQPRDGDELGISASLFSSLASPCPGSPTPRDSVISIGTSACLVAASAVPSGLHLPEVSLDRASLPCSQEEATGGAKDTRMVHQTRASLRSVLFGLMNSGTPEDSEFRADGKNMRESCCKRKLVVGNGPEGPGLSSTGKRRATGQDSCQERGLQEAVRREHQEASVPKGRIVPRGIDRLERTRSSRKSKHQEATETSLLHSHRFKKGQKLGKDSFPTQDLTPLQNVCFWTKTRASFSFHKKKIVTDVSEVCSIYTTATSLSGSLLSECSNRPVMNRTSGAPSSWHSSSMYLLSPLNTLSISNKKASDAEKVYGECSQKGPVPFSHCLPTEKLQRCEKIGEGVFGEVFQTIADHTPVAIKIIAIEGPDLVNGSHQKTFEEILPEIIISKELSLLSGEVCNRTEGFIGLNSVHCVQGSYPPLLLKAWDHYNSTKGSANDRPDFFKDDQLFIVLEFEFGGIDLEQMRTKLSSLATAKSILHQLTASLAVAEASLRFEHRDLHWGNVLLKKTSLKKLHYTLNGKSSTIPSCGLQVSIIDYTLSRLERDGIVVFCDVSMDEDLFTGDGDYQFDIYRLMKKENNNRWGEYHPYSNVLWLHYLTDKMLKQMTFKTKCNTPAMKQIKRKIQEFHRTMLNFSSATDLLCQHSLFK

382 unique human kinases [2] = molecular target: T2, 382 unique human kinases (Homo sapiens, UniProt P52333); conditions: JAK3, 10 uM; for remaining activity at 10 µM: read-out: % Enzyme Activity (relative to DMSO controls)
T2 construct: purchased Reaction Biology (HotSpot contract assay)
T2 sequence (P52333 1-1124): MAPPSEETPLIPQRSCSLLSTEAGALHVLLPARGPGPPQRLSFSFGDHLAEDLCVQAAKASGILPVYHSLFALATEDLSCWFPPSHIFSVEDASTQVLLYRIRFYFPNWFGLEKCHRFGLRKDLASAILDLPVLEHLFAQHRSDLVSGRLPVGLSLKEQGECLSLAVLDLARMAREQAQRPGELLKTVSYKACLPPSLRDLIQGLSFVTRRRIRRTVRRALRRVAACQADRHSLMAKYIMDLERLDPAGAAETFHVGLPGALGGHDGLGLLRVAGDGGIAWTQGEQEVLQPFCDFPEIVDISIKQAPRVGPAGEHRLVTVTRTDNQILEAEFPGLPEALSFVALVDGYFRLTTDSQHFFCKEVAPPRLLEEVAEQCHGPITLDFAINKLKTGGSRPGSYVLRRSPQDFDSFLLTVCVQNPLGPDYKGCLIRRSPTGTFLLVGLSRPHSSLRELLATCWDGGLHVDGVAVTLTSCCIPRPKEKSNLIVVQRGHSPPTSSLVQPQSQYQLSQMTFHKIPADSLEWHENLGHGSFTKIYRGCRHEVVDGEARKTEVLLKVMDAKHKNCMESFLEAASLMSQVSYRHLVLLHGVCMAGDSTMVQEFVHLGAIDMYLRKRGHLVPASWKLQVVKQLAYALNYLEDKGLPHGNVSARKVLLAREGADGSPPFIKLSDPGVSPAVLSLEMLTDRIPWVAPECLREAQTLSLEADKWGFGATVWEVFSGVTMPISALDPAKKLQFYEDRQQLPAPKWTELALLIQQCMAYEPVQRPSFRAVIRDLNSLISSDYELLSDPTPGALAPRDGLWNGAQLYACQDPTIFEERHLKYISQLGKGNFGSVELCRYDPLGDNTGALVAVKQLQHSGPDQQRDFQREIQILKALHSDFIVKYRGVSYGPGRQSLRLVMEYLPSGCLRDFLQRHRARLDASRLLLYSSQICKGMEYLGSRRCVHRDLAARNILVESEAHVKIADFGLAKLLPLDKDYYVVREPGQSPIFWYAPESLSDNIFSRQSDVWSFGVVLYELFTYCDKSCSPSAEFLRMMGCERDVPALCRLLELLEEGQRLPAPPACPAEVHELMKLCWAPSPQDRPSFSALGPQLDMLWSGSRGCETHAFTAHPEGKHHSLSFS

382 unique human kinases [3] = molecular target: T3, 382 unique human kinases (Homo sapiens, UniProt O75460); conditions: kinase ERN1/IRE1, compound 10 uM; for remaining activity at 10 µM: read-out: % Enzyme Activity (relative to DMSO controls)
T3 construct: purchased Reaction Biology (HotSpot contract assay)

382 unique human kinases [4] = molecular target: T4, 382 unique human kinases (Homo sapiens, UniProt Q00537); conditions: kinase CDK17/cyclin Y (PCTK2), compound 10 uM; for remaining activity at 10 µM: read-out: % Enzyme Activity (relative to DMSO controls)
T4 construct: purchased Reaction Biology (HotSpot contract assay)

382 unique human kinases [5] = molecular target: T5, 382 unique human kinases (Homo sapiens, UniProt P04049); conditions: RAF1, compound at 10 uM, duplicate values; for remaining activity at 10 µM: read-out: % Enzyme Activity (relative to DMSO controls)
T5 construct: purchased Reaction Biology (HotSpot contract assay)

382 unique human kinases [6] = molecular target: T6, 382 unique human kinases (Homo sapiens, UniProt Q02779); conditions: kinase MLK2/MAP3K10, compound 10 uM; for remaining activity at 10 µM: read-out: % Enzyme Activity (relative to DMSO controls)
T6 construct: purchased Reaction Biology (HotSpot contract assay)

382 unique human kinases [7] = molecular target: T7, 382 unique human kinases (Homo sapiens, UniProt P07948); conditions: LYN, [ATP] 15 µM, compound 10 uM; for remaining activity at 10 µM: read-out: % Enzyme Activity (relative to DMSO controls)
T7 construct: purchased Reaction Biology (HotSpot contract assay)

382 unique human kinases [8] = molecular target: T8, 382 unique human kinases (Homo sapiens, UniProt O14965); conditions: Aurora A, [ATP] 2.5 µM, compound 10 uM; for remaining activity at 10 µM: read-out: % Enzyme Activity (relative to DMSO controls)
T8 construct: purchased Reaction Biology (HotSpot contract assay)
T8 sequence (O14965 1-403): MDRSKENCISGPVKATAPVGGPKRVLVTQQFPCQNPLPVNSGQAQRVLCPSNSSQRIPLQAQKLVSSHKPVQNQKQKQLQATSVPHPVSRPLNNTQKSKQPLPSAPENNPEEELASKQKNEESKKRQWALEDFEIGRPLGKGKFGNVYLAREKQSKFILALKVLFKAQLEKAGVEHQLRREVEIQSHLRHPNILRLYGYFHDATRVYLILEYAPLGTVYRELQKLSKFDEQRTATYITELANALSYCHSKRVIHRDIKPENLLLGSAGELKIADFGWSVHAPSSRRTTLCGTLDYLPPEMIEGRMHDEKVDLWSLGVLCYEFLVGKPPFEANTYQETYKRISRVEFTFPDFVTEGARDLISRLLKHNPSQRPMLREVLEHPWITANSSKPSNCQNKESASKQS

382 unique human kinases [9] = molecular target: T9, 382 unique human kinases (Homo sapiens, UniProt P29317); conditions: EPHA2, [ATP] 50 µM, compound 10 uM; for remaining activity at 10 µM: read-out: % Enzyme Activity (relative to DMSO controls)
T9 construct: purchased Reaction Biology (HotSpot contract assay)
T9 sequence (P29317 24-976): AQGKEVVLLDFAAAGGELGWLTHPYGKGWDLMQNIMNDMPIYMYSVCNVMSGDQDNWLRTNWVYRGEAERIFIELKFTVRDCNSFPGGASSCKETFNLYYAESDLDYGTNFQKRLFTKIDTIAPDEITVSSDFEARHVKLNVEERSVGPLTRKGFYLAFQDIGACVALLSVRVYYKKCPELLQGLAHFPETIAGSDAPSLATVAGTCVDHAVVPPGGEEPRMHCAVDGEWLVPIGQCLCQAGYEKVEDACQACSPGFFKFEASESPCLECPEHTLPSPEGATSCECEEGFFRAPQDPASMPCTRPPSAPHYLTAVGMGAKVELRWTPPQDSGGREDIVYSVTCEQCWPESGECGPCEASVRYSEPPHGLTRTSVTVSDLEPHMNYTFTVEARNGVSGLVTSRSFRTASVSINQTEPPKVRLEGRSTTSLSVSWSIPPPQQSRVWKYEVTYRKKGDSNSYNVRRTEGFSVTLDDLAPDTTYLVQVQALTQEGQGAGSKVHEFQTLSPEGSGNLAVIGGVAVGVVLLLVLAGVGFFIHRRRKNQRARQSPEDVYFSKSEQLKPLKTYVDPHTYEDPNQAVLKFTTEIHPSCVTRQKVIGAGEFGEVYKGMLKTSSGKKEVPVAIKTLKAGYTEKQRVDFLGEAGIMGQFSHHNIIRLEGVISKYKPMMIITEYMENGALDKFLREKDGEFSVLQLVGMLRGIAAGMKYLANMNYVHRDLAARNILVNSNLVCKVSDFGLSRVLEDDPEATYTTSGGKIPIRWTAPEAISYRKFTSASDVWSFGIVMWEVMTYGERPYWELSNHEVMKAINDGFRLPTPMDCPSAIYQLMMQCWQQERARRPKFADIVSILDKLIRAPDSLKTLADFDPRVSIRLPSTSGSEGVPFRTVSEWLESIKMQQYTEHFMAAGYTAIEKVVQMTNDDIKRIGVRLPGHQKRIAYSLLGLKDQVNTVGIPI

T7 sequence (P07948 whole entry): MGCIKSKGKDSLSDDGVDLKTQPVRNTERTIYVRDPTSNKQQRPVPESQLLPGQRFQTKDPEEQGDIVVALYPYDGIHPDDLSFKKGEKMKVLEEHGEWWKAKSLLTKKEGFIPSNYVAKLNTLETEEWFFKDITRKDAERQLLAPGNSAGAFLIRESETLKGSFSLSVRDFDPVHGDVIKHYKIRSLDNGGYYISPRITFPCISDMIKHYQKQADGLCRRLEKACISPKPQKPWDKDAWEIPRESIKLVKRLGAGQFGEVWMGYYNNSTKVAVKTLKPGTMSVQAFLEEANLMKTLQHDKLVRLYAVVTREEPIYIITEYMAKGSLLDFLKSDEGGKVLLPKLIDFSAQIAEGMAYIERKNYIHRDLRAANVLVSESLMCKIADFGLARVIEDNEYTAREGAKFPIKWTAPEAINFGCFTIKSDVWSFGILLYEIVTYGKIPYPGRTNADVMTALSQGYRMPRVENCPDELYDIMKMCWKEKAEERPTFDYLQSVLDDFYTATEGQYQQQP
T6 sequence (Q02779 whole entry): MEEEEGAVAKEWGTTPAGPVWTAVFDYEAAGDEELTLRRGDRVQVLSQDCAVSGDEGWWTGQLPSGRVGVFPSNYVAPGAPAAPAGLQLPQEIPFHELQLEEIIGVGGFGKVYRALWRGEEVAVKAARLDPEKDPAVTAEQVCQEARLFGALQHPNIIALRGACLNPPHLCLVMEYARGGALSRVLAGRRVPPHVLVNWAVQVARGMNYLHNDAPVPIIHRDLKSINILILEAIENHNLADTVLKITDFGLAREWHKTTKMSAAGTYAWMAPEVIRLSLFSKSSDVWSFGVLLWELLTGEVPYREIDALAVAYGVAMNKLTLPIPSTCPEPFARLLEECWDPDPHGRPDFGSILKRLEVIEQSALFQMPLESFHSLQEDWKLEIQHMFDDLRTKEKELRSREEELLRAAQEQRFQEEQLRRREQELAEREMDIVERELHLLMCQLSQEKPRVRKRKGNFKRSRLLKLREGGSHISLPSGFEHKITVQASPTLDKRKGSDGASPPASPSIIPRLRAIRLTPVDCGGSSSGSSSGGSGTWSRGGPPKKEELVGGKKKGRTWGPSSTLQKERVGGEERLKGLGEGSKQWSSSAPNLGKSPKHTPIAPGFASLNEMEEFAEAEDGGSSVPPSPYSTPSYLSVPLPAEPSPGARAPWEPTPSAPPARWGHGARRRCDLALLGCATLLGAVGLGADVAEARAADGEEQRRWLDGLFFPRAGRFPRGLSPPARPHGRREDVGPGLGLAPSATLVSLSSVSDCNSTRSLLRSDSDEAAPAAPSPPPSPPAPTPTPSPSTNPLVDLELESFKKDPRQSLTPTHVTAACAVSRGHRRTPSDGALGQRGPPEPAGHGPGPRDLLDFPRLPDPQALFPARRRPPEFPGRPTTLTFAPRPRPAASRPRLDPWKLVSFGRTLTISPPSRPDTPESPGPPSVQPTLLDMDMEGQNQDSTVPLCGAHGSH
T3 sequence (O75460 19-977): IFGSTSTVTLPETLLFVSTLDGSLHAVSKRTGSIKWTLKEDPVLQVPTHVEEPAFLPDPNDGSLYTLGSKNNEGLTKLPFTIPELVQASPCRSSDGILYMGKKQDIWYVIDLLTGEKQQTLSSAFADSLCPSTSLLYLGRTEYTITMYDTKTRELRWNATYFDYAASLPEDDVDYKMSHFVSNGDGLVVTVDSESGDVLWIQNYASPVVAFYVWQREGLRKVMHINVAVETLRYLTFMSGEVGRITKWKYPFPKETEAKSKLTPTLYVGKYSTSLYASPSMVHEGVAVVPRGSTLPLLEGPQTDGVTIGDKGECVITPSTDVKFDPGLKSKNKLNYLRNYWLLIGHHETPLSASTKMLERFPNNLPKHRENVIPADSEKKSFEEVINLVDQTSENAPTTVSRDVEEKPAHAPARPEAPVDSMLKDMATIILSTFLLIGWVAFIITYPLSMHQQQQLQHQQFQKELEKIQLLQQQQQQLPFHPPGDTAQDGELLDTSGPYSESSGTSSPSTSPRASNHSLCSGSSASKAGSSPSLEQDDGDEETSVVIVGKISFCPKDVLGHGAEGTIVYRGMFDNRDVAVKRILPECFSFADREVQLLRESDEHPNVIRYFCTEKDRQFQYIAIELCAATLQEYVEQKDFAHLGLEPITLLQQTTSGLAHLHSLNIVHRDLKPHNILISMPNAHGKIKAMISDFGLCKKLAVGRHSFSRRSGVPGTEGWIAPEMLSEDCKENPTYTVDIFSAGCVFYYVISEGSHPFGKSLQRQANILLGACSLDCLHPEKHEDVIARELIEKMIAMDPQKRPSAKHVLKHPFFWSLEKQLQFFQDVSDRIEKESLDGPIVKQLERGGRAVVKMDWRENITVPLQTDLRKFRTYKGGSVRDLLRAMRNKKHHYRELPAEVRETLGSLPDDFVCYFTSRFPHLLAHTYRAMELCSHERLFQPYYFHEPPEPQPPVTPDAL
T5 sequence (P04049 whole entry): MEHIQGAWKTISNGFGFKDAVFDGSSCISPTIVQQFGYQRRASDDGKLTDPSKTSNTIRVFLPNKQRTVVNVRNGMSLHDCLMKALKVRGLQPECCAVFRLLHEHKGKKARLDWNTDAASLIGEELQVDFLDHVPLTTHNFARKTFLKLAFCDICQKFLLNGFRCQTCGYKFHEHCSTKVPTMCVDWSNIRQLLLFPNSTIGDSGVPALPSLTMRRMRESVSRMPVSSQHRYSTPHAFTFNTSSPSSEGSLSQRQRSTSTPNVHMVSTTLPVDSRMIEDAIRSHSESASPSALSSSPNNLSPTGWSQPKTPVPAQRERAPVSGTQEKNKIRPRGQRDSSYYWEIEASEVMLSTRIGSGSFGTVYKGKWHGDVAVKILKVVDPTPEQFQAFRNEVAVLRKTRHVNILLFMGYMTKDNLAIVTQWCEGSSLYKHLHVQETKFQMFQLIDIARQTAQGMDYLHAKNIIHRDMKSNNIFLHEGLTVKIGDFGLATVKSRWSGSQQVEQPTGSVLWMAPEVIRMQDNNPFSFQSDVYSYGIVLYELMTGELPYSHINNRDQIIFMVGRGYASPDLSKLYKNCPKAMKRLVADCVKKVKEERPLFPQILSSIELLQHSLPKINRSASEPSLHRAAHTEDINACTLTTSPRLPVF
T4 sequence (Q00537 whole entry): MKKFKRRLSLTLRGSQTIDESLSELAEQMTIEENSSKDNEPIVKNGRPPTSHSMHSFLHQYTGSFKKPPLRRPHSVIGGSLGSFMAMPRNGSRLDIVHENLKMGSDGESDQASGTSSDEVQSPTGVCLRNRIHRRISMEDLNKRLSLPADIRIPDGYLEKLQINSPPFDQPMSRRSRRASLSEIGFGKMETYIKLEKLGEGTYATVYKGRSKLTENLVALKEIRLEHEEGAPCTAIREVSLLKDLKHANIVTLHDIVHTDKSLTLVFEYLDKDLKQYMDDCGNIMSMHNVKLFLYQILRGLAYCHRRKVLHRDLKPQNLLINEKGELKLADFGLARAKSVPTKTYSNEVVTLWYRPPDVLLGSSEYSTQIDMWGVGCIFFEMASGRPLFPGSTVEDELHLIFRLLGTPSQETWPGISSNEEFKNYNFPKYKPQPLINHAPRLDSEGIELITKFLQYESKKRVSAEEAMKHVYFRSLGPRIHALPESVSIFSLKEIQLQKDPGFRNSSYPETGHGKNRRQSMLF

Q: How did the remaining activity at 10 µM (382 unique human kinases [1]) turn out when `CC(C)c1cc(-c2n[nH]c(=O)n2-c2ccc3c(ccn3C)c2)c(O)cc1O` [Ganetespib (STA9090)] was run?
A: Its remaining activity at 10 µM is 75.3%.

Q: And the remaining activity at 10 µM (382 unique human kinases [2])?
A: Its remaining activity at 10 µM is 60.1%.

Q: And the remaining activity at 10 µM (382 unique human kinases [3])?
A: The remaining activity at 10 µM was 103%.

Q: What about the remaining activity at 10 µM (382 unique human kinases [4]) of the same molecule?
A: The remaining activity at 10 µM was 86.5%.

Q: And the remaining activity at 10 µM (382 unique human kinases [5])?
A: Its remaining activity at 10 µM is 106%.

Q: What about the remaining activity at 10 µM (382 unique human kinases [6]) of the same molecule?
A: Its remaining activity at 10 µM is 98.6%.

Q: Which results are given for `CCNC(=O)c1noc(-c2cc(C(C)C)c(O)cc2O)c1-c1ccc(CN2CCOCC2)cc1` [Luminespib]?
A: % Enzyme Activity (relative to DMSO controls) (382 unique human kinases [7]): 38.08%; remaining activity at 10 µM (382 unique human kinases [7]): 39.2%; % Enzyme Activity (relative to DMSO controls) (382 unique human kinases [8]): 89.97%; remaining activity at 10 µM (382 unique human kinases [8]): 90.7%; % Enzyme Activity (relative to DMSO controls) (382 unique human kinases [9]): 92.01%; remaining activity at 10 µM (382 unique human kinases [9]): 92.4%

Q: With `CCNC(=O)c1noc(-c2cc(C(C)C)c(O)cc2O)c1-c1ccc(CN2CCOCC2)cc1` [Luminespib (AUY-922)] as the molecule, how does the “% Enzyme Activity (relative to DMSO controls)” value (382 unique human kinases [1]) read?
A: The value was 89.64%.

Q: What about the remaining activity at 10 µM (382 unique human kinases [1]) of the same molecule?
A: The remaining activity at 10 µM was 93%.

Q: And the “% Enzyme Activity (relative to DMSO controls)” value (382 unique human kinases [2])?
A: The value was 102.74%.

Q: What about the remaining activity at 10 µM (382 unique human kinases [2]) of the same molecule?
A: Its remaining activity at 10 µM is 103%.

Q: And the “% Enzyme Activity (relative to DMSO controls)” value (382 unique human kinases [3])?
A: Its value is 82.42%.

Q: And the remaining activity at 10 µM (382 unique human kinases [3])?
A: Its remaining activity at 10 µM is 82.5%.

Q: And the “% Enzyme Activity (relative to DMSO controls)” value (382 unique human kinases [4])?
A: The value was 80.06%.

Q: And the remaining activity at 10 µM (382 unique human kinases [4])?
A: The remaining activity at 10 µM was 80.7%.

Q: And the “% Enzyme Activity (relative to DMSO controls)” value (382 unique human kinases [5])?
A: The value was 103.94%.

Q: What about the remaining activity at 10 µM (382 unique human kinases [5]) of the same molecule?
A: The remaining activity at 10 µM was 105%.

Q: What about the “% Enzyme Activity (relative to DMSO controls)” value (382 unique human kinases [6]) of the same molecule?
A: The value was 89.74%.

Q: What about the remaining activity at 10 µM (382 unique human kinases [6]) of the same molecule?
A: Its remaining activity at 10 µM is 91.1%.

Q: For `CC(C)c1cc(-c2n[nH]c(=O)n2-c2ccc3c(ccn3C)c2)c(O)cc1O` [Ganetespib], which remaining activity at 10 µM (382 unique human kinases [7]) is on record?
A: Its remaining activity at 10 µM is 21.7%.

Q: What about the remaining activity at 10 µM (382 unique human kinases [8]) of the same molecule?
A: Its remaining activity at 10 µM is 35%.

Q: What about the remaining activity at 10 µM (382 unique human kinases [9]) of the same molecule?
A: The remaining activity at 10 µM was 43.5%.
